Values joined by “and” are separate entries in the source; they are usually repeats but may differ in a detail not shown here. Equal entries are not always repeated.
Key:
[1] = tested on: Drosophila melanogaster transheterozygous larvae; assay: Genotoxicity (single treatment), Drosophila wing spot test (SMART); assay type: in vivo; set-up: key to Mann-Whitney Test: n.s.: non-significant; details: single treatment; for Mann-Whitney Test: vs negative control
Protocol: (§1) The principles and basic procedures for the Drosophila wing spot test have been described by Graf et al., and in previous works of our group. Two strains of flies carrying wing genetic markers on the left arm of chromosome 3: multiple wing […] used. The transheterozygous larvae were obtained by crossing […] (Third Multiple 3), Bd^S(Beaded […]) virgin females. Hybrid eggs derived from crossing optimally fertile flies were collected over an 8 h period. […] Concurrent negative controls with the solvent alone (water) and positive controls with hydrogen peroxide (120 mM) were also run. Anti-genotoxicity tests were carried out by mixing the mutagen (hydrogen peroxide, 120 mM) with the compounds solution. After emergence, adult flies were collected from the treatment vials and stored in 70% ethanol. The wings of the flies were removed under a stereomicroscope using a pair of entomological tweezers, similar number of males and females-wings were mounted in Faure's solution on microscope slides and inspected, under 400× magnification, for the presence of clones of cells. The mutant clones were classified into three types: […] The appearance of twin spots indicated the recombinogenic activity of the chemotherapeutic agent (Figure 1). The frequencies of spots per fly of treated series were compared with its corresponding negative control series (water) to analyze Somatic Mutation and Recombination Test (SMART) data. For maximum power, statistical analyses were done exclusively for the total number of spots recovered. The non-parametric U test of Mann, Whitney and Wilcoxon was used to avoid weak positive and inconclusive results on SMART and to achieve a well-defined statistical diagnosis whether a given treatment should be regarded as genotoxic or not. The inhibition percentages (IP) were calculated using the total spots per wing with the following formula [16, 36]: IP = ((Genotoxine alone - Genotoxine plus active compound)/Genotoxine alone) × 100

[2] = tested on: SP6.5 cell line; set-up: method as in PMID 24223611; details: SP6.5 human uveal melanoma cell line; read-out: IC50 (cell viability); cited from earlier work
[3] = tested on: C918 cell line; set-up: method as in PMID 24223611; details: C918 human uveal melanoma cell line; read-out: IC50 (cell viability); cited from earlier work
[4] = tested on: HL60 cells; assay: Nucleosomal DNA fragmentation assay; assay type: cell-based, human; details: HL60, 5 h, same concentrations as in the cytotoxicity assay, agarose gel
Protocol: The HL60 tumoral cell line was used with the aim of analyse the apoptotic induction. […] A non-treated cells control was included for each experiment. For DNA fragmentation, treated cells were collected, were centrifuged at 4000 rpm for 5 min and washed with PBS. […] The agarose gels were run at 50 V for 90 min in TBE (Tris/Borate/EDTA) buffer and then observed and photographed under UV light. For Annexin V-PI test, Annexin V Apoptosis Detection Kit ([…] Biotech S.L., Cordoba, Spain) was used. Briefly, cells were resuspended in 100 μL of Binding buffer solution 1× and subsequently, 5 μL AnnexinV-FITC (Fluorescein isothiocyanate) and 10 μL propidium iodide were added, and samples were incubated for 10 min at room temperature in darkness, and flow cytometry (Beckman Coulter Inc., Brea, CA, USA) was then used to analyze the rate of apoptosis.

[5] = tested on: normal ocular cells (uveal melanocytes, retinal pigment epithelial cells, and scleral fibroblasts); set-up: method as in PMID 24223611; details: highest level tested 300 μM; cited from earlier work
[6] = tested on: HL60 cells; assay: Cytotoxicity assay, trypan blue exclusion; assay type: cell-based, human; details: HL60, 72 h, trypan blue exclusion, at the tested concentrations
Protocol: Therefore, all the cells that exclude the dye are viable. Non-viable cells stained purple-violet, whereas viable ones remained unstained. Trypan blue was added to cell cultures at a 1:1 ratio, and 20 μL of cell suspension was loaded into a Neubauer chamber. The cells were counted under an inverted microscope at 100× magnification. […] Curves are expressed as survival percentage with respect to controls growing at 72 h. All data represent the average of at least three independent experiments.

[7] = tested on: Drosophila melanogaster transheterozygous larvae; assay: Anti-genotoxicity (combined treatment with hydrogen peroxide 120 mM), Drosophila wing spot test (SMART); assay type: in vivo; set-up: key to Mann-Whitney Test: n.s.: non-significant; details: combined treatment with H2O2 120 mM; for Mann-Whitney Test: vs negative control
Protocol: as §1

CC1=C(/C=C/C(C)=C/C=C/C(C)=C/C=C/C=C(C)/C=C/C=C(C)/C=C/C2=C(C)C[C@@H](O)CC2(C)C)C(C)(C)C[C@H](O)C1 [Zeaxanthin, zeaxanthin]
Large Spots (>2 Cells) m = 5 ([1]; 0.0001 μM): 0.00 (0) clones per wing
Small Spots (1–2 Cells) m = 2 ([1]; 0.0001 μM): 0.05 (2) clones per wing
Total Spots m = 2 ([1]; 0.0001 μM): 0.05 (2) clones per wing
Twin Spots m = 5 ([1]; 0.0001 μM): 0.00 (0) clones per wing
Mann-Whitney Test ([1]; 0.0001 μM): n.s.
Large Spots (>2 Cells) m = 5 ([1]; 0.105 μM): 0.03 (1) clones per wing
Small Spots (1–2 Cells) m = 2 ([1]; 0.105 μM): 0.10 (4) clones per wing
Total Spots m = 2 ([1]; 0.105 μM): 0.15 clones per wing and 0.15 (6) clones per wing
Twin Spots m = 5 ([1]; 0.105 μM): 0.03 (1) clones per wing
Mann-Whitney Test ([1]; 0.105 μM): n.s.
IC50 [2]: 40.8 µM
IC50 [3]: 28.7 µM
internucleosomal DNA fragmentation ladder pattern [4]: did not show any internucleosomal fragmentation ladder pattern
effect on viability of normal ocular cells [5]: did not affect the viability
cytotoxic effect (tumoral viability) [6]: slight cytotoxic activities
Large Spots (>2 Cells) m = 5 ([7]; 0.0001 μM): 0.00 (0) clones per wing
Small Spots (1–2 Cells) m = 2 ([7]; 0.0001 μM): 0.03 (1) clones per wing
Total Spots m = 2 ([7]; 0.0001 μM): 0.05 (2) clones per wing
Twin Spots m = 5 ([7]; 0.0001 μM): 0.03 (1) clones per wing
Mann-Whitney Test ([7]; 0.0001 μM): n.s.
Large Spots (>2 Cells) m = 5 ([7]; 0.105 μM): 0.00 (0) clones per wing
Small Spots (1–2 Cells) m = 2 ([7]; 0.105 μM): 0.07 (2) clones per wing
Total Spots m = 2 ([7]; 0.105 μM): 0.07 (2) clones per wing
Twin Spots m = 5 ([7]; 0.105 μM): 0.00 (0) clones per wing
Mann-Whitney Test ([7]; 0.105 μM): n.s.
